PubChem BioAssay (NCI)
Where “and” joins values, the source holds several entries; their conditions need not be identical. Equal values may be shown once.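 Results reflect a 48-hour exposure of cells in 96-well plates to compound at five concentrations. At the GI50, growth is halved. TGI is the concentration that stops growth completely.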

How the values were obtained:
Experiment in all cases: DTP human tumour cell line panel, 48 h
[1] = system: IGROV1 ovarian
[2] = system: NCI-H460 lung
[3] = system: ACHN renal
[4] = system: OVCAR-8 ovarian
[5] = system: A549 NSCLC
[6] = system: OVCAR-4 ovarian
[7] = system: HOP-92 NSCLC
[8] = system: OVCAR-3 ovarian
[9] = system: SK-MEL-2 melanoma
[10] = system: NCI/ADR-RES ovarian

| SMILES | TGI [1] | TGI [2] | TGI [3] | TGI [4] | TGI [5] | TGI [6] | TGI [7] | TGI [8] | GI50 [1] | GI50 [2] | GI50 [3] | GI50 [4] | GI50 [5] | GI50 [6] | GI50 [7] | GI50 [9] | TGI [9] | GI50 [8] | GI50 [10] | TGI [10] |
| --- | --- | --- | --- | --- | --- | --- | --- | --- | --- | --- | --- | --- | --- | --- | --- | --- | --- | --- | --- | --- |
| Cc1c(C(=O)/C=C/c2ccc([N+](=O)[O-])cc2)[n+](=O)c2ccccc2n1[O-] | > 100 µM | > 100 µM | > 100 µM | > 100 µM | > 100 µM | > 100 µM | > 100 µM | > 100 µM |  |  |  |  |  |  |  |  |  |  |  |  |
| CC(=O)[CH-]C(=O)c1ccccc1.CC(=O)[CH-]C(=O)c1ccccc1.CC(=O)[CH-]C(=O)c1ccccc1.[Cl-].[Hf+4] | > 100 µM | > 100 µM | > 100 µM | > 100 µM | > 100 µM | > 100 µM | 50.4 µM | > 100 µM | 47 µM | 38.5 µM | 31.3 µM | 27.9 µM | 46.4 µM | 86.5 µM | 18.9 µM | 18.1 µM | 53.2 µM | 13.6 µM |  |  |
| CC(C)(C)c1cc(Cc2ccc(S(C)(=O)=O)cc2)c(O)c(C(C)(C)C)c1 | 28.3 µM | 30.5 µM | 26.6 µM | 28.1 µM | 24.2 µM | 28.1 µM |  |  |  |  |  |  |  |  |  |  | 30.4 µM |  |  |  |
| CC(=O)[CH-]C(=O)c1ccccc1.CC(=O)[CH-]C(=O)c1ccccc1.CC[C@H](CCC(C)[C@H]1CCC2[C@@H]3CC=C4C[C@@H]([O-])CC[C@]4(C)C3CC[C@@]21C)C(C)C.CC[C@H](CCC(C)[C@H]1CCC2[C@@H]3CC=C4C[C@@H]([O-])CC[C@]4(C)C3CC[C@@]21C)C(C)C.Cl.[Ti+4] (stereo not given in full) | > 25 µM | > 25 µM | > 25 µM | > 25 µM | > 25 µM | > 25 µM |  | > 25 µM |  |  |  |  |  |  |  |  | > 25 µM |  |  |  |
| COC1(OC)CCC2(C)OC(c3ccccc3)C1O2 (stereo not given) | > 100 µM | > 100 µM | > 100 µM | > 100 µM | > 100 µM | > 100 µM |  | > 100 µM |  |  |  |  |  |  |  |  | > 100 µM |  |  |  |
| CC12CCC(=O)N1[C@@H](c1ccccc1)[C@@H](c1ccccc1)O2 (stereo not given in full) | > 100 µM | > 100 µM | > 100 µM | > 100 µM | > 100 µM | > 100 µM | > 100 µM | > 100 µM |  |  |  |  |  |  |  |  | > 100 µM |  |  |  |
| [CH3][Ge]([CH3])([CH2]CC#N)[S]c1ccccc1 | 1.28 µM | 29.8 µM | 33.1 µM | 46.5 µM | > 100 µM | 50 µM | 79.7 µM | 29.1 µM | 0.371 µM | 16.3 µM | 18 µM | 11.5 µM | 2.19 µM | 18.6 µM | 31.2 µM | 14.7 µM | 39.6 µM | 12.3 µM |  |  |
| CCCCN(CCCC)CC(C(=O)Nc1ccc([N+](=O)[O-])cc1[N+](=O)[O-])/C(C)=N\NC(=O)c1ccncc1 (stereo not given) | > 100 µM | > 100 µM | > 100 µM | > 100 µM | > 100 µM | > 100 µM | > 100 µM | > 100 µM |  |  |  |  |  |  |  |  | > 100 µM |  |  |  |
| Nc1nc2c(ncn2C2OC(CO)C(O)C2O)c(=O)o1 (stereo not given) | > 100 µM | > 100 µM | > 100 µM | > 100 µM | > 100 µM | > 100 µM | > 100 µM | > 100 µM |  |  |  |  |  |  |  |  | > 100 µM |  |  |  |
| NC(N)=NCCCC(Nc1c2ccccc2nc2ccccc12)C(=O)O (stereo not given) |  | > 100 µM | > 100 µM | > 100 µM | > 100 µM | 43.4 µM | > 100 µM | > 100 µM |  |  |  |  |  |  |  |  | > 100 µM |  |  |  |
| NNC(=O)N/N=C(/CC1(O)C(=O)Nc2ccc(Br)cc21)c1ccccc1 (stereo not given) | > 100 µM |  | > 100 µM |  | > 100 µM |  | 63.8 µM | > 100 µM |  |  |  |  |  |  |  |  | 85.2 µM |  |  |  |
| Cc1[nH]c2ccccc2c1/C=C/c1c(C)[nH]c2ccccc12 | > 100 µM | > 100 µM | > 100 µM | > 100 µM | > 100 µM | > 100 µM |  | > 100 µM |  |  |  |  |  |  |  |  | > 100 µM |  |  |  |
| CN1C(=O)[C@@H](CC2CCCC2)N(C2CCCC2)c2nc(Nc3cc(Cl)c(O)c(Cl)c3)ncc21 | > 100 µM | 90.3 µM | > 100 µM | > 100 µM | > 100 µM | > 100 µM | 66.7 µM | 73.9 µM | 32.9 µM | 23.5 µM | 18.7 µM | 28.4 µM | 22.1 µM | 25.8 µM | 13.6 µM |  |  | 21.8 µM | 20.7 µM | > 100 µM |
| CN(C)C/C=C/C(=O)Nc1ccc(C(=O)Nc2cccc(Nc3ncc(Cl)c(-c4c[nH]c5ccccc45)n3)c2)cc1 |  | 0.904 µM |  | > 100 µM | > 100 µM |  |  | 0.0903 µM | 0.0251 µM | 0.265 µM | 0.0957 µM | 0.0428 µM | 0.0963 µM | 0.021 µM |  | 0.021 µM | 0.0682 µM | < 0.0122 µM | 1.54 µM | > 100 µM |
| C=C1C2CCCC1C1(S(C)(=O)=O)CCCCC21O (stereo not given) | > 100 µM | > 100 µM | > 100 µM | > 100 µM | > 100 µM | > 100 µM |  | > 100 µM |  |  |  |  |  |  |  |  | > 100 µM |  |  |  |
| COc1ccc(C(=O)C(c2ccc(OC)cc2)C2(O)C(=O)Nc3c(Cl)cc(Cl)cc32)cc1 (stereo not given) |  | 49.9 µM | 61.2 µM | 56.2 µM | 54.9 µM | 20.1 µM | 33.2 µM | 49.9 µM |  |  |  |  |  |  |  |  | 31.5 µM |  |  |  |
| CCN(CC)CCN1C(=O)c2c(c3c4cccc(Cl)c4n(C4OC(CO)C(OC)C(O)C4O)c3c3[nH]c4c(Cl)cccc4c23)C1=O (stereo not given) |  |  |  |  |  |  |  |  |  | < 0.0001 µM | < 0.0001 µM | < 0.0001 µM | < 0.0001 µM |  | 0.000362 µM | 0.00103 µM and < 0.01 µM |  |  |  |  |
| CCN(CC)Cc1cc(Nc2ccnc3ccc(OC)cc23)ccc1O |  | 10.4 µM | 9.5 µM | 34.5 µM | 18.1 µM | 11.6 µM | 7.13 µM | 20.4 µM |  | 3.28 µM | 2.82 µM | 7.21 µM | 4.37 µM | 2.54 µM | 2.04 µM | 2.94 µM | 5.5 µM | 3.2 µM | 4.87 µM | 28.8 µM |
| CCN(CC)CCOc1ccc2c(-c3ccccc3)c(-c3ccc(OC)cc3)c(=O)oc2c1 |  | 6.06 µM | 20.1 µM | 29.1 µM | 22 µM | 18.1 µM | 10.7 µM | 16.5 µM |  | 2.5 µM | 6.82 µM | 13.1 µM | 7.76 µM | 4.8 µM | 2.47 µM |  |  | 4.32 µM | 4.51 µM | 17.5 µM |
